According to patent publication US9365522B2, “Pyrazole amide derivative” (AMGEN INC., priority 2015, dated 2016):

Biological target: T1, human RORγ-LBD (Homo sapiens, UniProt P51449)
T1 construct: made in house; host or cells: E. coli (BL-21)
T1 sequence (P51449 262-518): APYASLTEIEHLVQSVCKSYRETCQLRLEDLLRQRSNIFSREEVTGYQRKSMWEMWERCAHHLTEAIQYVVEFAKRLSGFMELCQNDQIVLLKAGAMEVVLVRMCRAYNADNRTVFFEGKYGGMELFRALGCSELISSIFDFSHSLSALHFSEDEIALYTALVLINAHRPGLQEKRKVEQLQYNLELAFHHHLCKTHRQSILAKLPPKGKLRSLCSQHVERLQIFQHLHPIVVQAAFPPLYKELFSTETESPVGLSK
Test: ROR gamma coactivator peptide recruitment Alphascreen assay (RORγ-LBD binding to GRIP1 coactivator peptide)
Assay type: biochemical
Details: 5 nM human RORγ-LBD, 30 nM 7-β-hydroxycholesterol, 50 nM biotinylated GRIP1 coactivator peptide, overnight incubation at room temperature; read-out: result (pIC50, RORγ coactivator peptide recruitment Alphascreen assay) (converted)
Method in brief: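 His/Flag-tagged human RORγ-LBD (aa 262-518, E. coli-expressed, 5 nM) with agonist 7-β-hydroxycholesterol (30 nM) and biotinylated GRIP1 LXXLL peptide (50 nM) in HEPES pH 7.4 buffer, 2.5% DMSO. Compound 1-in-2 dilutions; Alphascreen bead signal read after overnight incubation at room temperature; pIC50 calculated.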

Row | SMILES | IC50 [nM]
1 | CC(C)(C#N)CCN(CC(=O)c1c(Cl)cccc1Cl)C(=O)c1cnn([C@H]2CC[C@](C)(C(=O)O)CC2)c1C(F)(F)F [Example 622, trans-4-(4-((3-cyano-3-methylbutyl)(2-(2,6-dichlorophenyl)-2-oxoethyl)carbamoyl)-5-(trifluoromethyl)-1H-pyrazol-1-yl)-1-methylcyclohexanecarboxylic acid] | 229
2 | O=C(CN(C(=O)c1cnn([C@H]2CC[C@@H](C(=O)O)CC2)c1C(F)(F)F)[C@H]1CC12CCCC2)c1c(Cl)cccc1Cl [Example 624, cis-4-(4-((2-(2,6-dichlorophenyl)-2-oxoethyl)((1S)-spiro[2.4]hept-1-yl)carbamoyl)-5-(trifluoromethyl)-1H-pyrazol-1-yl)cyclohexanecarboxylic acid] | 102
3 | C[C@]1(C(=O)O)CC[C@H](n2ncc(C(=O)N(CC(=O)c3c(Cl)cccc3Cl)[C@H]3CCC34CCCC4)c2C(F)(F)F)CC1 [Example 626] | 2.82
4 | CC1(C)C[C@H](CN(CC(=O)c2c(Cl)cccc2Cl)C(=O)c2cnn([C@H]3CC[C@](C)(C(=O)O)CC3)c2C(F)(F)F)O1 [Example 628, trans-4-(4-((2-(2,6-dichlorophenyl)-2-oxoethyl)(((2R)-4,4-dimethyl-2-oxetanyl)methyl)carbamoyl)-5-(trifluoromethyl)-1H-pyrazol-1-yl)-1-methylcyclohexanecarboxylic acid] | 26.9
5 | CC1(C)C[C@@H](CN(CC(=O)c2c(Cl)cccc2Cl)C(=O)c2cnn([C@H]3CC[C@](C)(C(=O)O)CC3)c2C(F)(F)F)O1 [Example 629, trans-4-(4-((2-(2,6-dichlorophenyl)-2-oxoethyl)(((2S)-4,4-dimethyl-2-oxetanyl)methyl)carbamoyl)-5-(trifluoromethyl)-1H-pyrazol-1-yl)-1-methylcyclohexanecarboxylic acid] | 45.7
6 | Cc1cc(Cl)c(C(=O)CN(CC2(F)CC2)C(=O)c2cnn([C@H]3CC[C@](C)(C(=O)O)CC3)c2C(F)(F)F)c(Cl)c1 [Example 630, trans-4-(4-((2-(2,6-dichloro-4-methylphenyl)-2-oxoethyl)((1-fluorocyclopropyl)methyl)carbamoyl)-5-(trifluoromethyl)-1H-pyrazol-1-yl)-1-methylcyclohexanecarboxylic acid] | 3.98
7 | Cc1cc(Cl)c(C(=O)CN(CC2(F)CCCC2)C(=O)c2cnn([C@H]3CC[C@@H](C(=O)O)CC3)c2C(F)(F)F)c(Cl)c1 [Example 631, cis-4-(4-((2-(2,6-dichloro-4-methylphenyl)-2-oxoethyl)((1-fluorocyclopentyl)methyl)carbamoyl)-5-(trifluoromethyl)-1H-pyrazol-1-yl)cyclohexanecarboxylic acid] | 10
8 | C[C@]1(C(=O)O)CC[C@H](n2ncc(C(=O)N(CC(=O)c3c(Cl)cccc3Cl)C3CC4(CCC4)C3)c2C(F)(F)F)CC1 [Example 632, trans-4-(4-((2-(2,6-dichlorophenyl)-2-oxoethyl)(spiro[3.3]hept-2-yl)carbamoyl)-5-(trifluoromethyl)-1H-pyrazol-1-yl)-1-methylcyclohexanecarboxylic acid] | 3.98
9 | C[C@]1(C(=O)O)CC[C@H](n2ncc(C(=O)N(CC(=O)c3c(Cl)cncc3Cl)C3CC4(CCC4)C3)c2C(F)(F)F)CC1 [Example 633, trans-4-(4-((2-(3,5-dichloro-4-pyridinyl)-2-oxoethyl)(spiro[3.3]hept-2-yl)carbamoyl)-5-(trifluoromethyl)-1H-pyrazol-1-yl)-1-methylcyclohexanecarboxylic acid] | 8.13
10 | CC1(C)CC[C@H]1N(CC(=O)c1c(Cl)cncc1Cl)C(=O)c1cnn([C@H]2CC[C@@H](C(=O)O)CC2)c1C(F)(F)F [Example 634, cis-4-(4-((2-(3,5-dichloro-4-pyridinyl)-2-oxoethyl)((1R)-2,2-dimethylcyclobutyl)carbamoyl)-5-(trifluoromethyl)-1H-pyrazol-1-yl)cyclohexanecarboxylic acid] | 871
11 | CC1(C)CC[C@@H]1N(CC(=O)c1c(Cl)cncc1Cl)C(=O)c1cnn([C@H]2CC[C@@H](C(=O)O)CC2)c1C(F)(F)F [Example 635, cis-4-(4-((2-(3,5-dichloro-4-pyridinyl)-2-oxoethyl)((1S)-2,2-dimethylcyclobutyl)carbamoyl)-5-(trifluoromethyl)-1H-pyrazol-1-yl)cyclohexanecarboxylic acid] | 324
12 | CC1(C)CC[C@H]1N(CC(=O)c1c(Cl)cccc1Cl)C(=O)c1cnn([C@H]2CC[C@@H](C(=O)O)CC2)c1C(F)(F)F [Example 636, cis-4-(4-((2-(2,6-dichlorophenyl)-2-oxoethyl)((1R)-2,2-dimethylcyclobutyl)carbamoyl)-5-(trifluoromethyl)-1H-pyrazol-1-yl)cyclohexanecarboxylic acid] | 132
13 | CC1(C)CC[C@@H]1N(CC(=O)c1c(Cl)cccc1Cl)C(=O)c1cnn([C@H]2CC[C@@H](C(=O)O)CC2)c1C(F)(F)F [Example 637, cis-4-(4-((2-(2,6-dichlorophenyl)-2-oxoethyl)((1S)-2,2-dimethylcyclobutyl)carbamoyl)-5-(trifluoromethyl)-1H-pyrazol-1-yl)cyclohexanecarboxylic acid] | 724
14 | COC1(CN(CC(=O)c2c(Cl)cncc2Cl)C(=O)c2cnn([C@H]3CC[C@](C)(C(=O)O)CC3)c2C(F)(F)F)CCCC1 [Example 638, trans-4-(4-((2-(3,5-dichloro-4-pyridinyl)-2-oxoethyl)((1-methoxycyclopentyl)methyl)carbamoyl)-5-(trifluoromethyl)-1H-pyrazol-1-yl)-1-methylcyclohexanecarboxylic acid] | 15.5
15 | C[C@]1(C(=O)O)CC[C@H](n2ncc(C(=O)N(CC(=O)c3c(Cl)cccc3Cl)[C@@H]3CCC34CCC4)c2C(F)(F)F)CC1 [Example 639, trans-4-(4-((2-(2,6-dichlorophenyl)-2-oxoethyl)((1R)-spiro[3.3]hept-1-yl)carbamoyl)-5-(trifluoromethyl)-1H-pyrazol-1-yl)-1-methylcyclohexanecarboxylic acid] | 57.5
16 | O=C(CN(C(=O)c1cnn([C@H]2CC[C@@H](C(=O)O)CC2)c1C(F)(F)F)[C@@H]1CCC12CCC2)c1c(Cl)cccc1Cl [Example 640, cis-4-(4-((2-(2,6-dichlorophenyl)-2-oxoethyl)((1R)-spiro[3.3]hept-1-yl)carbamoyl)-5-(trifluoromethyl)-1H-pyrazol-1-yl)cyclohexanecarboxylic acid] | 776
17 | C[C@]1(C(=O)O)CC[C@H](n2ncc(C(=O)N(CC(=O)c3c(Cl)cccc3Cl)[C@H]3CCC34CCC4)c2C(F)(F)F)CC1 [Example 641, trans-4-(4-((2-(2,6-dichlorophenyl)-2-oxoethyl)((1S)-spiro[3.3]hept-1-yl)carbamoyl)-5-(trifluoromethyl)-1H-pyrazol-1-yl)-1-methylcyclohexanecarboxylic acid] | 2.14
18 | O=C(CN(C(=O)c1cnn([C@H]2CC[C@@H](C(=O)O)CC2)c1C(F)(F)F)[C@H]1CCC12CCC2)c1c(Cl)cccc1Cl [Example 642, cis-4-(4-((2-(2,6-dichlorophenyl)-2-oxoethyl)((1S)-spiro[3.3]hept-1-yl)carbamoyl)-5-(trifluoromethyl)-1H-pyrazol-1-yl)cyclohexanecarboxylic acid] | 24
